Source: ChEMBL document CHEMBL1151526, “3-Acetoxy-2,2-bi-1H-indol as a novel inhibitor of ATP binding to DnaA, the protein initiating chromosomal replication in escherichia coli” (Bioorg Med Chem Lett, 1994)

Test: Inhibition of [alpha-32P]ATP binding to DnaA protein purified from Escherichia coli

Question: Which IC50 does the source give for `CCOc1c(-c2cc3ccccc3[nH]2)[nH]c2ccccc12` here?
Answer: 200 µM

Question: With `CC(=O)Oc1c(-c2cc3ccccc3[nH]2)[nH]c2ccccc12` as the compound, how does the IC50 read?
Answer: 40 µM

Question: For `O=C1C(c2c[nH]c3ccccc23)=C(c2c[nH]c3ccccc23)C(=O)N1Cc1ccccc1`, which IC50 is on record?
Answer: > 10000 µM

Question: With `CC(=O)Oc1c(-c2c(C(C)=O)c3ccccc3n2C(C)=O)[nH]c2ccccc12` as the compound, how does the IC50 read?
Answer: 1500 µM

Question: With `CC(c1ccccc1)N1C(=O)c2c(c3c4ccccc4[nH]c3c3[nH]c4ccccc4c23)C1=O` (stereo not given) as the compound, how does the IC50 read?
Answer: 5000 µM

Question: Which IC50 does the source give for `Nc1ncnc2c1ncn2[C@@H]1O[C@H](CO)[C@@H](O)[C@H]1O` [ADENOSINE] here?
Answer: > 10000 µM

Question: For `CN(C)CCCn1cc(C2=C(c3c[nH]c4ccccc34)C(=O)NC2=O)c2ccccc21` [GF-109203], which IC50 is on record?
Answer: 3000 µM

Question: With `O=C1/C(=C2\Nc3ccccc3C2=O)Nc2ccccc21` [INDIGO] as the compound, how does the IC50 read?
Answer: 200 µM

Question: Which IC50 does the source give for `c1ccc2[nH]ccc2c1` [INDOLE] here?
Answer: > 10000 µM

Question: For `O=C1NC(=O)C(c2c[nH]c3ccccc23)=C1c1c[nH]c2ccccc12` [RO-316233], which IC50 is on record?
Answer: 1000 µM
